The text below walks through data of article PMC6257630, “Photoactivatable Cell-Selective Dinuclear trans-Diazidoplatinum(IV) Anticancer Prodrugs” (Inorganic Chemistry, 2018).

Like-named read-outs stand apart in the source and are kept apart here. Marks after values point to notes of the source that are not given here. Where only a bound is given, the exact number is not on record here.

For series [1], the system named is OE19 esophageal adenocarcinoma cells. Briefly: Photo/dark cytotoxicity (SRB assay). The following applies: 1 h incubation, 24 h recovery.
Series [2] has as its system A2780 cells. Kind of series: Cell cycle analysis by flow cytometry. It counts as cell-based, human. The settings on record: A2780, dark; equipotent photocytotoxic IC50 concentration, 1 h exposure + 1 h dark. The procedure: (§1) All flow cytometry experiments were carried out using a Becton Dickinson FACScan flow cytometer in the School of Life Sciences at Warwick University. Typically, cells were seeded in 6-well plates using 1.5 × 10^6 cells/well. Experiments included 24 h of preincubation in drug-free media at 310 K in a CO2 humidified atmosphere, followed by 1 h of drug exposure under the same conditions. After this, samples were irradiated for 1 h. For comparison, the dark plates were kept in the incubator for another 1 h. Supernatants were removed, cells were washed with PBS. Samples were then collected after trypsinization, washed with PBS, and stained in the dark with a mixture of propidium iodide and RNase. After 30 min of staining, the cell samples were washed and set up for flow cytometry reading on the red channel FL-2.
(§2) The effect of complexes 3 and 4 in the presence of light on the progression of the cell cycle was studied. Cells were exposed to prodrugs at equipotent photocytotoxic IC50 concentrations for 1 h in the dark and then irradiated for 1 h (465 nm, 4.8 mW/cm^2, 1 h). After 24 h of recovery, cells were stained in the dark with propidium iodide in the presence of RNase and then analyzed by flow cytometry.
A general note: A flow cytometer gives signals particle by particle.

The next series relates to OE19 cells. Kind of series: Cell cycle analysis by flow cytometry. The following applies: OE19, dark; equipotent photocytotoxic IC50 concentration, 1 h exposure + 1 h dark. The class given is cell-based, human. The procedure:
as §1, §2

The next series relates to A2780cis cells. Kind of series: Cell cycle analysis by flow cytometry. It counts as cell-based, human. The settings on record: dark, equipotent photocytotoxic IC50 concentration, 1 h exposure + 1 h dark. As to the method: as §1, §2
Series [3] has as its system A2780 ovarian carcinoma cells. The settings on record: for IC50: 1 h incubation, 24 h recovery.
The test system of series [4] is cisplatin-resistant A2780cis ovarian carcinoma cells. The following applies: 1 h incubation, 24 h recovery.
Series [5] concerns MRC5 normal fibroblast cells. Briefly: Photo/dark cytotoxicity (SRB assay). For orientation: In SRB staining, fixed cells bind dye roughly in proportion to their protein.
The subject of series [6] is A2780 ovarian carcinoma cells. Briefly: cells. The following applies: Homo sapiens, A2780, light or radiation study.
In series [7] the test system is cisplatin-resistant A2780cis ovarian carcinoma cells. Briefly: cells. The following applies: Homo sapiens, light or radiation study.
Series [8] relates to negatively supercoiled pSP73KB plasmid. Also on record: method as in PMID 22420335. The settings on record: photoactivated, identical conditions; cited from earlier work.
Series [9] deals with plasmid pUC19 linearized by EcoRI. Briefly: Formation of DNA interstrand cross-links. The class given is biochemical. The following applies: irradiated with blue light 1 h + 23 h dark, 10 mM NaClO4, 310 K; rb 0.003 and 0.0006 (FM-190) or 0.00015 and 0.0003 (1, 4). The procedure:
Solutions of the plasmid pUC19 linearized by EcoRI (50 μg/mL) were incubated with the Pt complex under irradiation conditions (for 1 h and subsequently incubated in the dark for an additional 23 h) at various ri values in NaClO4 (10 mM) at 310 K. Autoradiograms were recorded of denaturing 1% agarose gel of linearized DNA, which was 3′-end-labeled and nonmodified or modified by FM-190, 1, and 4 photoactivated by visible light.
Therefore, we investigated the capability of irradiated 1 and 4 to form DNA interstrand cross-links as well. Plasmid pUC19 linearized by EcoRI (50 μg mL^–1) and the Pt complex were irradiated with blue light for 1 h and subsequently incubated in the dark for an additional 23 h in NaClO4 (10 mM) at 310 K. The plasmid was modified to the extent corresponding to the rb values of 0.003 and 0.0006 (in the case of FM-190) or 0.00015 and 0.0003 (in the case of 1 and 4) and analyzed by agarose gel electrophoresis under denaturing conditions (Figure 5C). Interstrand cross-linked DNA appears as the top band (marked as ICLs), migrating on the gel more slowly than single-stranded DNA (contained in the bottom bands and marked as ss). […] It is, therefore, reasonable to envisage that the treatment of DNA by irradiated dinuclear 1 or 4 results in the formation of trans GG interstrand DNA cross-links as in the case of the treatment with mononuclear complex FM-190.

For the next series, the system named is parental A2780 cells. Also on record: method as in PMID 20677309. The settings on record: cited from earlier work.
In series [10] the test system is A2780 cells. Briefly: Pt accumulation in cancer cells (ICP-MS). It counts as cell-based, human. The following applies: equipotent IC50 concentration, 1 h, in the dark.
The mark [11] stands for this setting: A2780, irrad, 1 h irradiation (465 nm, 4.8 mW/cm^2).
The mark [12] stands for this setting: MRC5 normal cells, dark, 1 h incubation, 1 h dark, 24 h recovery.
[13] abbreviates: MRC5 normal cells, irrad, 1 h incubation, 1 h irradiation (465 nm), 24 h recovery.

As a reminder, the IC50 is the concentration that inhibits the measured activity by half. Regarding `[NH2][Pt]([NH2])([Cl])[Cl]` [CDDP, cisplatin], the half-maximal inhibitory concentration (IC50) in series [1] (OE19, dark, 1 h dark) was more than 100 µM; in [1] (OE19, irrad, 1 h irradiation (465 nm, 4.8 mW/cm^2)) it was more than 100 µM; in [3] (A2780, dark, 1 h dark) it was more than 100 µM; in series [3] (setting [11]), more than 100 µM; in series [4] (dark, 1 h dark) it was more than 100 µM; in [4] (irrad, 1 h irradiation (465 nm, 4.8 mW/cm^2)) it was more than 100 µM. Besides, the IC50 in [5] (setting [12]) and in series [5] (setting [13]) was more than 100 µM throughout. Further, the “% Cell Population, G1 phase” value in the series on A2780 cells [2] is given as 32.1±0.5%; in the series on OE19 cells it was 36.3±1.2%; in the series with A2780cis cells, 64.2±2.8%. Also, the “% Cell Population, G2/M phase” value in the series with A2780 cells [2] came out at 67.4±0.9%; with OE19 cells, 45.5±0.9%; with A2780cis cells, 22.0±0.4%. Also, the “% Cell Population, S phase” value in the series on A2780 cells [2] amounted to 0.4±0.5%; with OE19 cells, 18.2±0.3%; with A2780cis cells it was 13.8±2.4%.

Consider `CN(C)CCCN1c2ccccc2Sc2ccc(Cl)cc21` [CPZ, chlorpromazine], for which the IC50 in [6] is 6 ± 0.3 µM; in series [7], 6 ± 0.3 µM; in [5] (Homo sapiens, MRC5) it was more than 100 µM; in [5] (Homo sapiens, MRC5, light or radiation study), more than 50 µM.

“trans,trans,trans-[Pt(N3)2(OH)2(py)2] [FM-190]”: the DNA unwinding angle in [8] is 28 ± 4 °. Moreover, in series [9], the “frequencies of interstrand cross-linking” value is 12.5 ± 0.5. Besides, the “PI (photocytotoxicity index)” value in series [3] (A2780, dark vs irradiated (465 nm)) is given as more than 14.0. Besides, the IC50 in series [3] (A2780, dark, 1 h dark) was more than 100 µM; in [3] (setting [11]), 7.1 ± 0.4 µM; in the series with parental A2780 cells (parental A2780, irradiation with UVA (365 nm)), 1.4 µM; in series [5] (setting [12]), more than 100 µM; in series [5] (setting [13]), more than 100 µM. In addition, the “toxicity to parental A2780 compared with A2780cis” value with parental A2780 cells (irradiation with UVA (365 nm)) is listed as 10 times. The platinum accumulation in the series with A2780 cells [10] is listed as 0.8 ± 0.2 ^b ng/10^6 cells.
